# Source: ChEMBL document CHEMBL4482323, “Novel heterocyclic compound, method for preparing same, and pharmaceutical composition comprising same as active ingredient for preventing or treating cancer” (2017)
# pIC50: −log10 of the molar value.
# Key:
# HCT-116 = assay: Antiproliferative activity against human HCT116 cells after 48 hrs by CCK8 assay; format: functional; conditions: HCT-116, 48 h, read-out: LD50 (the source's name)
# THP-1 = assay: Antiproliferative activity against human THP1 cells after 48 hrs by CCK8 assay; format: functional; conditions: THP-1, 48 h, read-out: LD50 (the source's name)
# SUMO-activating enzyme = SUMO-activating enzyme (Homo sapiens, UniProt Q9UBT2); assay: Inhibition of SAE (unknown origin) using recombinant His-tagged human SUMO1 measured after 2 hrs by HTRF assay; format: protein-complex assay
# Sequence of SUMO-activating enzyme (Q9UBE0 whole entry): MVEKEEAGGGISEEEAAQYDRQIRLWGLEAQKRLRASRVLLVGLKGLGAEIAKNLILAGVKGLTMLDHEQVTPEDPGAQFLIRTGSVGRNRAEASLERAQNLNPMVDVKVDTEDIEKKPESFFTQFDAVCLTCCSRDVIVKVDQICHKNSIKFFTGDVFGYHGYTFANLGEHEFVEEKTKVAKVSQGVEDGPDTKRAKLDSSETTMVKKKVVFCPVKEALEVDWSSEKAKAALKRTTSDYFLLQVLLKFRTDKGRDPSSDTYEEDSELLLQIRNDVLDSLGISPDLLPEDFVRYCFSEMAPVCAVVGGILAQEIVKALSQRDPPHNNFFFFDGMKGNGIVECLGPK
# Sequence of SUMO-activating enzyme (Q9UBT2 whole entry): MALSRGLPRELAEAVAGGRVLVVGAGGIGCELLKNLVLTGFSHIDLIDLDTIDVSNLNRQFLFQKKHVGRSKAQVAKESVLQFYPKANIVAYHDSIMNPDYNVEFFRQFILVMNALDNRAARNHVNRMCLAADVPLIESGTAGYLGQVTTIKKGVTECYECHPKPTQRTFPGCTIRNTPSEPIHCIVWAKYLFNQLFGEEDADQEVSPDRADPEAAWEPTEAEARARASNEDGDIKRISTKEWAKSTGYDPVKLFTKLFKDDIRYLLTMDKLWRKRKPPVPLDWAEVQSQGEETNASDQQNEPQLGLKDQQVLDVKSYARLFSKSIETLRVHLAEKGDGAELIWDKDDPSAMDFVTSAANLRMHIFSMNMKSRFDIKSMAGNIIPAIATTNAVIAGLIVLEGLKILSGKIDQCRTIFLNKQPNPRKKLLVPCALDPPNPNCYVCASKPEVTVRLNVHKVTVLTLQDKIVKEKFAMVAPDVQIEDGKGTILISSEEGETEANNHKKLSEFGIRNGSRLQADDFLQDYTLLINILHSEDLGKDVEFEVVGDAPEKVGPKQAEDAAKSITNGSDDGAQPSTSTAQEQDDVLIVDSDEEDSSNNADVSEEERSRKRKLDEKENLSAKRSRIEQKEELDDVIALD
# NEDD8 activating enzyme = molecular target: T1, NEDD8 activating enzyme (Homo sapiens, UniProt Q8TBC4); assay: Inhibition of NAE (unknown origin) using GST-tagged Ubc12 and Flag-tagged Nedd8 measured after 2 hrs by TR-FRET assay; format: protein-complex assay
# T1 sequence (Q8TBC4 whole entry): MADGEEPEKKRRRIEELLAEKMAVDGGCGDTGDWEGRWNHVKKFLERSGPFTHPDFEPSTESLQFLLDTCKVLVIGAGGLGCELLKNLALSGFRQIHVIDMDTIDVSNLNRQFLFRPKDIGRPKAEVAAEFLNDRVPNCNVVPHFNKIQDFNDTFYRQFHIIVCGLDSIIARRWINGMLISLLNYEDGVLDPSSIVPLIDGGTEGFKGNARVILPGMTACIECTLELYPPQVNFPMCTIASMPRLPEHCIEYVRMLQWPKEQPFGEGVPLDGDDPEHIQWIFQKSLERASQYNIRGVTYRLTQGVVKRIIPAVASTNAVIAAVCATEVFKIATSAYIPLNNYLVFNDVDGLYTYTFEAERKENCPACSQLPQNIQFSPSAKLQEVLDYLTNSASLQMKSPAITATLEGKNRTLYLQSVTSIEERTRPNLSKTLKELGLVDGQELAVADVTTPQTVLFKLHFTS
# T1 sequence (Q13564 whole entry): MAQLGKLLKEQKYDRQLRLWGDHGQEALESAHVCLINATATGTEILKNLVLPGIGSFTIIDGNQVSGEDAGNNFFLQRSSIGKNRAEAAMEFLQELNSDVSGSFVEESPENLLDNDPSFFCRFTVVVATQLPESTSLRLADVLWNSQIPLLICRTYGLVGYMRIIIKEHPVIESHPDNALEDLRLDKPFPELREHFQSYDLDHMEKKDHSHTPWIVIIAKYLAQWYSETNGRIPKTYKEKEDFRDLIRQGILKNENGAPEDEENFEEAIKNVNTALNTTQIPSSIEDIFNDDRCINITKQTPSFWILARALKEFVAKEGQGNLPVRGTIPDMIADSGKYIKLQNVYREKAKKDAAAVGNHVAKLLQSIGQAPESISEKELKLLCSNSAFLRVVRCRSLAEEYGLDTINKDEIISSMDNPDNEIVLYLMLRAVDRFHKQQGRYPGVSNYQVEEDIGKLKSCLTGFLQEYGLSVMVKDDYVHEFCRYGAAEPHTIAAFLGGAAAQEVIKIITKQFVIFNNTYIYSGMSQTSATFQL
SMILES,CC50 (HCT-116) [nM],CC50 (THP-1) [nM],pIC50 (SUMO-activating enzyme),pIC50 (NEDD8 activating enzyme)
NS(=O)(=O)OC[C@H]1C[C@@H](Nc2ncncc2C(=O)c2cn(Cc3cccc(C(F)(F)F)c3)c3ccccc23)[C@H](O)[C@@H]1O,1240,1280,5.50,7.92
Cc1cccc(Cn2cc(C(=O)c3cncnc3N[C@@H]3C[C@H](COS(N)(=O)=O)[C@@H](O)[C@H]3O)c3cc(F)ccc32)c1,,,6.17,
COc1cccc(Cn2cc(C(=O)c3cncnc3N[C@@H]3C[C@H](COS(N)(=O)=O)[C@@H](O)[C@H]3O)c3ccccc32)c1,431,< 30,7.40,7.66
N#Cc1cccc(Cn2cc(C(=O)c3cncnc3N[C@@H]3C[C@H](COS(N)(=O)=O)[C@@H](O)[C@H]3O)c3ccccc32)c1,15100,13200,,
NS(=O)(=O)OC[C@H]1C[C@@H](Nc2ncncc2C(=O)c2cn(Cc3ccc(C(F)(F)F)o3)c3ccccc23)[C@H](O)[C@@H]1O,2010,813,5.89,
NS(=O)(=O)OC[C@H]1C[C@@H](Nc2ncncc2C(=O)c2cn(Cc3cccc(F)c3)c3ccccc23)[C@H](O)[C@@H]1O,456,< 30,5.78,7.04
Cc1c(Cn2cc(C(=O)c3cncnc3N[C@@H]3C[C@H](COS(N)(=O)=O)[C@@H](O)[C@H]3O)c3cc(F)ccc32)cccc1C(F)(F)F,,,6.00,6.95
NS(=O)(=O)OC[C@H]1C[C@@H](Nc2ncncc2C(=O)c2cn(Cc3ccccc3F)c3ccccc23)[C@H](O)[C@@H]1O,3120,1000,5.54,
Cc1cc(Cn2cc(C(=O)c3cncnc3N[C@@H]3C[C@H](COS(N)(=O)=O)[C@@H](O)[C@H]3O)c3cc(F)ccc32)ccc1F,,,5.76,7.82
NS(=O)(=O)OC[C@H]1C[C@@H](Nc2ncncc2C(=O)c2cn(Cc3cc(Cl)ccc3Cl)c3ccccc23)[C@H](O)[C@@H]1O,643,662,,7.43
NS(=O)(=O)OC[C@H]1C[C@@H](Nc2ncncc2C(=O)c2nn(Cc3cccc(Br)c3)c3ccccc23)[C@H](O)[C@@H]1O,,,5.77,
NS(=O)(=O)OC[C@H]1C[C@@H](Nc2ncncc2C(=O)c2cn(Cc3cccc(Cl)c3)c3ccccc23)[C@H](O)[C@@H]1O,790,600,6.34,7.72
NS(=O)(=O)OC[C@H]1C[C@@H](Nc2ncncc2C(=O)c2cn(Cc3cccc(Br)c3)c3ncccc23)[C@H](O)[C@@H]1O,2010,813,6.18,
NS(=O)(=O)OC[C@H]1C[C@@H](Nc2ncncc2C(=O)c2cn(Cc3ccccc3)c3ccccc23)C[C@@H]1O,,,6.25,9.22
NS(=O)(=O)OC[C@H]1C[C@@H](Nc2ncncc2C(=O)c2cn(Cc3ccc(F)c(F)c3)c3ccccc23)[C@H](O)[C@@H]1O,2280,1810,5.46,7.70
NS(=O)(=O)OC[C@H]1C[C@@H](Nc2ncncc2C(=O)c2cn(CC3CCCCC3)c3ccccc23)[C@H](O)[C@@H]1O,,,5.78,
NS(=O)(=O)OC[C@H]1C[C@@H](Nc2ncncc2C(=O)c2cn(Cc3ccc4ccccc4c3)c3ccc(F)cc23)[C@H](O)[C@@H]1O,,,,6.85
NS(=O)(=O)OC[C@H]1C[C@@H](Nc2ncncc2C(=O)c2cn(Cc3ccc(S(F)(F)(F)(F)F)cc3)c3ccc(F)cc23)[C@H](O)[C@@H]1O,,,,8.00
NS(=O)(=O)OC[C@H]1C[C@@H](Nc2ncncc2C(=O)c2cn(Cc3cccc(Br)c3)c3ccccc23)[C@H](O)[C@@H]1O,934,223,7.00,
NS(=O)(=O)OC[C@H]1C[C@@H](Nc2ncncc2C(=O)c2cn(Cc3ccccc3)c3ccccc23)[C@H](O)[C@@H]1O,228,< 30,6.92,8.30
NS(=O)(=O)OC[C@H]1C[C@@H](Nc2ncncc2C(=O)c2cn(Cc3cc(C(F)(F)F)cc(C(F)(F)F)c3)c3ccccc23)[C@H](O)[C@@H]1O,4120,2780,,
NS(=O)(=O)OC[C@H]1C[C@@H](Nc2ncncc2C(=O)c2cn(Cc3cccc(N4CCOCC4)c3)c3ccc(F)cc23)[C@H](O)[C@@H]1O,,,< 5.00,7.89
NS(=O)(=O)OC[C@H]1C[C@@H](Nc2ncncc2C(=O)c2cn(Cc3cccc(Br)c3)c3ccc(F)cc23)[C@H](O)[C@@H]1O,1010,896,6.28,9.05
NS(=O)(=O)OC[C@H]1C[C@@H](Nc2ncncc2C(=O)c2cn(Cc3ccc(F)cc3F)c3ccccc23)[C@H](O)[C@@H]1O,1480,1560,7.52,8.10
Cc1cccc(Cn2cc(C(=O)c3cncnc3N[C@@H]3C[C@H](COS(N)(=O)=O)[C@@H](O)[C@H]3O)c3ccccc32)n1,413,55.3,5.66,
NS(=O)(=O)OC[C@H]1C[C@@H](Nc2ncncc2C(=O)c2cn(Cc3ccccc3)c3ccccc23)[C@@H](F)[C@@H]1O,,,5.74,
NS(=O)(=O)OC[C@H]1C[C@@H](Nc2ncncc2C(=O)c2cn(Cc3ccc(F)c(Cl)c3)c3ccccc23)[C@H](O)[C@@H]1O,1800,1430,5.80,
NS(=O)(=O)OC[C@H]1C[C@@H](Nc2ncncc2C(=O)c2cn(Cc3cccc(I)c3)c3ccccc23)[C@H](O)[C@@H]1O,587,163,6.33,
"C/C=C/Cn1cc(C(=O)c2cncnc2NC2C[C@H](COS(N)(=O)=O)[C@@H](O)[C@H]2O)c2ccccc21 (single isomer, unassigned)",,,5.73,
